# Laboratory results taken from US7312231B2, “Quinuclidine carbamate derivatives and their use as M3 antagonists” (priority 2000, dated 2007).
# pIC50: −log10 of the molar value. Read-outs that look alike come from different tables or passages of the source.
# What was measured:
# [1] = target: T1, human muscarinic M3 receptors (Homo sapiens, UniProt P20309); experiment: biochemical; assay type: binding; conditions: for IC50: [3H]-NMS displacement, membranes of CHO-K1 cells expressing human M3, 25° C., 60 min, read-out: BINDING TO RECPTOR M3 (IC50 nM)
# T1 construct: expressed in transfected cells; host or cells: Chinese hamster ovary-K1 (CHO) cells, membrane preparations
# Procedure: The binding of [^3H]-NMS to human muscarinic receptors was performed according to Waelbroek et al (1990), Mol. Pharmacol., 38:267–273. Assays were carried out at 25° C. Membrane preparations from stably transfected Chinese hamster ovary-K1 cells (CHO) expressing the genes for the human muscarinic M3 receptors were used.
# For determination of IC50, membrane preparations were suspended in DPBS to a final concentration of 89 μg/ml for the M3 subtype. The membrane suspension wasincubated with the tritiated compound for 60 min. After incubation the membrane fraction was separated by filtration and the bound radioactivity determined. […] At least six concentrations were assayed in duplicate to generate individual displacement curves.
# T1 sequence (P20309 whole entry): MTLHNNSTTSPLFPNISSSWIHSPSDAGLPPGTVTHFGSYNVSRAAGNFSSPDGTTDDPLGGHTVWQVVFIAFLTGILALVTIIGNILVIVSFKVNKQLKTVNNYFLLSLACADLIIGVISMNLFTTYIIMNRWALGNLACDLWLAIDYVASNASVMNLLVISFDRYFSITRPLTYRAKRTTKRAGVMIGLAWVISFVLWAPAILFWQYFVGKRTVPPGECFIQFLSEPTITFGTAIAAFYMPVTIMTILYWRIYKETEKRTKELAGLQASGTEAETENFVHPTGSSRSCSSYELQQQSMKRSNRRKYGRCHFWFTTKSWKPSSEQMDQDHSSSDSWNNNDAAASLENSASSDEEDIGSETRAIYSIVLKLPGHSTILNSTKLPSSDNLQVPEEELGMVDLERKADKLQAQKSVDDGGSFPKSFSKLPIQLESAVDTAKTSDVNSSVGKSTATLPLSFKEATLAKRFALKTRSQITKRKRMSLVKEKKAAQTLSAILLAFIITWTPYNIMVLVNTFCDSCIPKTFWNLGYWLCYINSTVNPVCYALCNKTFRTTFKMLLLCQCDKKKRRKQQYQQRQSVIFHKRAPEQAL
melting point [°C],Compound,IC50 [1] [nM],pIC50 [1]
–,"O=C(O[C@H]1C[N+]2(CCCc3cccs3)CCC1CC2)N(Cc1cccs1)c1ccccc1 [Example 90, 3-(R)(phenylthiophen-2-ylmethylcarbamoyloxy)-1-(3-thiophen-2-ylpropyl)-1-azoniabicyclo[2.2.2]octane; bromide]",9.2,–
–,"CCCCN(C(=O)O[C@H]1C[N+]2(CCOc3ccccc3)CCC1CC2)c1ccccc1 [Example 79, 3-(R)(Butylphenylcarbamoyloxy)-1-(2-phenoxyethyl)-1-azoniabicyclo[2.2.2]octane; bromide]",14,–
–,"O=C(O[C@H]1C[N+]2(CCOc3ccccc3)CCC1CC2)N(Cc1cccs1)c1ccccc1 [Example 91, 1-(2-Phenoxyethyl)-3-(R)(phenylthiophen-2-ylmethylcarbamoyloxy)-1-azonia bicyclo[2.2.2]octane; bromide]",6.8,–
120,CCCCN(C(=O)O[C@H]1C[N+]2(CCCc3ccccc3)CCC1CC2)c1ccccc1.[Br-],–,–
–,3-(R)(Phenylthiophen-3-ylmethylcarbamoyloxy)-1-(2-phenoxyethyl)-1-azonia bicyclo[2.2.2]octane; bromide [Example 136],9,–
–,"O=C(O[C@H]1C[N+]2(CCCc3cccs3)CCC1CC2)N(Cc1cccs1)Cc1cccs1 [Example 146, 3-(R)(bis-thiophen-2-ylmethylcarbamoyloxy)-1-(3-thiophen-2-ylpropyl)-1-azonia bicyclo[2.2.2]octane; bromide]",14.4,–
–,"O=C(O[C@H]1CN2CCC1CC2)N(Cc1cccs1)c1ccccc1 [Example 82, Phenylthiophen-2-ylmethylcarbamic acid 1-azabicyclo[2.2.2]oct-3-(R)yl ester]",4.5,–
141,C=CC[N+]12CCC(CC1)[C@@H](OC(=O)N(CCCC)c1ccccc1)C2.[Br-],–,–
81,O=C(O[C@H]1C[N+]2(CCc3ccccc3)CCC1CC2)N(Cc1ccccc1)c1ccccc1.[Br-],–,–
–,"O=C(O[C@H]1CN2CCC1CC2)N(Cc1ccccc1)c1ccccc1 [Example 1, Benzylphenylcarbamic acid 1-azabicyclo[2.2.2]oct-3-(R)yl ester]",5,–
139,CCCCN(C(=O)O[C@H]1C[N+]2(CCc3ccccc3)CCC1CC2)c1ccccc1.[Br-],–,–
–,"CCCCCN(C(=O)O[C@H]1CN2CCC1CC2)c1ccccc1 [Example 104, Pentylphenylcarbamic acid 1-azabicyclo[2.2.2]oct-3-(R)yl ester]",–,7.72
–,"O=C(O[C@H]1CN2CCC1CC2)N(Cc1ccco1)Cc1ccco1 [Example 156, bis-Furan-2-ylmethylcarbamic acid 1-azabicyclo[2.2.2]oct-3-(R)yl ester]",18,–
–,"O=C(O[C@H]1CN2CCC1CC2)N(Cc1ccsc1)c1ccccc1 [Example 126, Phenylthiophen-3-ylmethylcarbamic acid 1-azabicyclo[2.2.2]oct-3-(R)yl ester]",8.6,–
–,1-Allyl-3-(R)(phenylthiophen-2-ylmethylcarbamoyloxy)-1-azoniabicyclo [2.2.2]octane; bromide [Example 92],11.5,–
–,"O=C(O[C@H]1CN2CCC1CC2)N(Cc1ccco1)c1ccccc1 [Example 153, Furan-2-ylmethylphenylcarbamic acid 1-azabicyclo[2.2.2]oct-3-(R)yl ester]",6,–
–,"O=C(O[C@H]1C[N+]2(CCCc3ccccc3)CCC1CC2)N(Cc1cccs1)Cc1cccs1 [Example 142, 3-(R)(bis-thiophen-2-ylmethylcarbamoyloxy)-1-(3-phenylpropyl)-1-azoniabicyclo [2.2.2]octane; bromide]",17.8,–
–,"O=C(O[C@H]1C[N+]2(CCOc3ccccc3)CCC1CC2)N(Cc1ccccc1)c1ccccc1 [Example 32, 3-(R)(Benzylphenylcarbamoyloxy)-1-(2-phenoxyethyl)-1-azoniabicyclo[2.2.21 octane; bromide]",8,–
64,O=C(O[C@@H]1C[N+]2(CCCc3ccccc3)CCC1CC2)N(Cc1ccccc1)c1ccccc1.[Br-],–,–

Compound,melting point [°C],IC50 [1] [nM],pIC50 [1]
"CCCCN(C(=O)O[C@H]1C[N+]2(CC=Cc3ccccc3)CCC1CC2)c1ccccc1.[Br-] [Example 58, 3-(R)(Butylphenylcarbamoyloxy)-1-(3-phenylallyl)-1-azoniabicyclo[2.2.2]octane; bromide]",144,8,–
"C=CC[N+]12CCC(CC1)[C@@H](OC(=O)N(Cc1ccccc1)c1ccccc1)C2.[Br-] [Example 6, 1-Allyl-3-(R)(benzylphenylcarbamoyloxy)-1-azoniabicyclo[2.2.2]octane; bromide]",70,18,–
"O=C(O[C@H]1C[N+]2(CC=Cc3ccccc3)CCC1CC2)N(Cc1ccccc1)c1ccccc1.[Br-] [Example 5, 3-(R)(Benzylphenylcarbamoyloxy)-1-(3-phenylallyl)-1-azoniabicyclo[2.2.2]octane; bromide]",129,11.1,–
"O=C(O[C@H]1C[N+]2(CCCc3ccccc3)CCC1CC2)N(Cc1ccccc1)c1ccccc1.[Br-] [Example 31, 3-(R)(Benzylphenylcarbamoyloxy)-1-(3-phenylpropyl)-1-azoniabicyclo[2.2.2]octane; bromide]",101,8,–
